Test results: patent US8802694B2, “3,6-diazabicyclo[3.1.1]heptanes as neuronal nicotinic acetycholine receptor ligands” (Targacept, Inc., priority 2009, dated 2014)
Read-outs that look alike come from different tables or passages of the source.

Key:
Rat α4β2 = target: T1, Rat α4β2 (Rattus norvegicus, UniProt P09483+P12390); experiment: Competition binding to rat α4β2 receptors in rat cortical membranes; conditions: rat cortex membranes
T1 construct: Rat cortices were obtained from Analytical Biological Services; tissue Analytical Biological Services, Incorporated (ABS, Wilmington, Del.); host or cells: rat cortex (female Sprague-Dawley)
Protocol: Preparation of membranes from rat tissues. Rat cortices were obtained from Analytical Biological Services, Incorporated (ABS, Wilmington, Del.). Tissues were dissected from female Sprague-Dawley rats, frozen and shipped on dry ice. Tissues were stored at −20° C. until needed for membrane preparation. […] The resulting homogenate was centrifuged at 40,000 g for 20 minutes at 4° C. and the resulting pellet was resuspended in 20 volumes of ice-cold water. After 60-minute incubation at 4° C., a new pellet was collected by centrifugation at 40,000 g for 20 minutes at 4° C. The final pellet was resuspended in preparative buffer and stored at −20° C. On the day of the assay, tissue was thawed, centrifuged at 40,000 g for 20 minutes and then resuspended in PBS (Dulbecco's Phosphate Buffered Saline, Life Technologies, pH 7.4) to a final concentration of 2-3 mg protein/mL. Protein concentrations were determined using the Pierce BCA Protein Assay kit (Pierce Biotechnology, Rockford, Ill.), with bovine serum albumin as the standard.
Competition binding to receptors in membrane preparations. […] In brief, membranes were reconstituted from frozen stocks (approximately 0.2 mg protein) and incubated for 2 h on ice in […] assay buffer (PBS) in the presence of competitor compound (0.001 nM to […]) and radioligand. [^3H]-nicotine (L-(−)-[N-methyl-3H]-nicotine, 69.5 Ci/mmol, Perkin-Elmer Life Sciences) was used for human α4β2 binding studies. [^3H]-epibatidine (52 Ci/mmol, Perkin-Elmer Life Sciences) was used for binding studies at the other receptor subtypes. […] Filters were washed 3 times and the radioactivity retained was determined by liquid scintillation counting.
Binding data analysis. Binding data were expressed as percent total control binding. Replicates for each point were averaged and plotted against the log of drug concentration.

α6β3β4α5 = target: T2, α6β3β4α5 (Homo sapiens, UniProt P30926+Q15825); experiment: Competition binding to α6β3β4α5 receptors in membranes of SH-EP1/α6β3β4α5 cells ([3H]-epibatidine); conditions: membrane competition binding
T2 construct: host or cells: SH-EP1

Human α4β2 = target: T3, Human α4β2 (Homo sapiens, UniProt P17787+P43681); experiment: Competition binding to human α4β2 receptors in membranes of SH-EP1/human α4β2 cells ([3H]-nicotine); conditions: membrane competition binding
T3 construct: host or cells: SH-EP1

SMILES | Ki (Rat α4β2; Rat α4β2 Ki) [nM] | Ki (α6β3β4α5; read-out: α6β3β4α5 Ki) [nM] | Ki (Human α4β2; Human α4β2 Ki) [nM] | Ki (α6β3β4α5; α6β3β4α5 Ki) [nM] | Ki (Human α4β2; read-out: Human α4β2 Ki) [nM] | Ki (Rat α4β2; read-out: Rat α4β2 Ki) [nM]
O=C(NCc1ccc(Cl)c(Cl)c1)N1CC2CC(C1)N2 | 71 | 120 | 90 |  |  | 
O=C([C@@H]1C[C@H]1c1ccccc1)N1C2CNCC1C2 | 51 | 350 | 30 |  |  | 
CC(C)C(=O)N1CC2CC(C1)N2 [3-isopropylcarbonyl-3,6-diazabicyclo[3.1.1]heptane] | 23 |  | 220 | 830 |  | 
O=C(CC1CCC1)N1C2CNCC1C2 | 30 | 360 | 53 |  |  | 
O=C(CCC(F)(F)F)N1CC2CC(C1)N2 | 63 | 980 | 74 |  |  | 
O=C(CC(F)(F)F)N1CC2CC(C1)N2 [3-(2,2,2-trifluoroethyl)carbonyl-3,6-diazabicyclo[3.1.1]heptane] | 25 | 1700 | 11 |  |  | 
C[C@H]1C[C@@H]1C(=O)N1CC2CC(C1)N2 [drawing 157] | 100 |  | 7.6 | 2600 |  | 
O=C(C1CC1)N1CC2CC(C1)N2 [3-cyclopropylcarbonyl-3,6-diazabicyclo[3.1.1]heptane] | 2.3 |  |  | 140 | 3 | 
CC1(C)CC1C(=O)N1C2CNCC1C2 (stereo not drawn) | 45 | 800 | 75 |  |  | 
O=C(CC1CCCC1)N1C2CNCC1C2 | 100 | 360 |  |  | 220 | 
O=C(C1CC1(F)F)N1CC2CC(C1)N2 (stereo not drawn) | 8.8 |  | 6.1 | 510 |  | 
O=C([C@@H]1C[C@H]1F)N1CC2CC(C1)N2 | 0.54 |  |  | 91 | 1 | 
O=C([C@@H]1C[C@@H]2C=C[C@H]1C2)N1CC2CC(C1)N2 |  | 1300 |  |  | 160 | 210
O=C([C@H]1C[C@@H]1F)N1CC2CC(C1)N2 [drawing 111] | 0.81 |  | 4.5 | 120 |  | 
CC1(C)C(C(=O)N2CC3CC(C2)N3)C1(C)C |  | 480 |  |  | 140 | 710
O=C(CSc1ccc(Cl)c(Cl)c1)N1CC2CC(C1)N2 | 16 |  | 2.3 | 100 |  | 
C/C=C/CCC(=O)N1CC2CC(C1)N2 | 25 | 540 | 37 |  |  | 
O=C(C1CC12CCC2)N1CC2CC(C1)N2 (stereo not drawn) | 1.2 |  | 2.6 | 50 |  | 
O=C([C@H]1C[C@H]1F)N1CC2CC(C1)N2 [drawing 110] | 1.1 |  | 5.2 | 530 |  | 
C[C@@H]1C(C(=O)N2CC3CC(C2)N3)[C@@H]1C (stereo partly drawn) | 30 | 170 | 44 |  |  | 
CCC1(CC)CC1C(=O)N1CC2CC(C1)N2 (stereo not drawn) | 69 | 470 | 71 |  |  | 
O=C(c1cc(Br)co1)N1CC2CC(C1)N2 [3-(3-bromofuran-5-yl)carbonyl-3,6-diazabicyclo[3.1.1]heptane] | 80 | 2700 | 35 |  |  | 
O=C(C1C2CCCCC21)N1CC2CC(C1)N2 (stereo not drawn) | 30 | 280 | 78 |  |  | 
